Columns and labels:
[1] = target: Isocitrate dehydrogenase [NADP] cytoplasmic (Homo sapiens, UniProt O75874, R132H); experiment: Inhibition of IDH1 (unknown origin) R132H mutant using alpha-KG as substrate after 60 mins in presence of NADPH by resazurin dye-based fluorescence assay
[2] = target: Isocitrate dehydrogenase [NADP] cytoplasmic (Homo sapiens, UniProt O75874, R132C); experiment: Inhibition of IDH1 R132C mutant in human HT1080 cells assessed as inhibition of 2HG production after 48 hrs by LC-MS/MS analysis; format: cell-based
Isocitrate dehydrogenase [NADP] cytoplasmic (Homo sapiens, UniProt O75874, R132C), sequence (O75874 2-414 R132C limits assumed): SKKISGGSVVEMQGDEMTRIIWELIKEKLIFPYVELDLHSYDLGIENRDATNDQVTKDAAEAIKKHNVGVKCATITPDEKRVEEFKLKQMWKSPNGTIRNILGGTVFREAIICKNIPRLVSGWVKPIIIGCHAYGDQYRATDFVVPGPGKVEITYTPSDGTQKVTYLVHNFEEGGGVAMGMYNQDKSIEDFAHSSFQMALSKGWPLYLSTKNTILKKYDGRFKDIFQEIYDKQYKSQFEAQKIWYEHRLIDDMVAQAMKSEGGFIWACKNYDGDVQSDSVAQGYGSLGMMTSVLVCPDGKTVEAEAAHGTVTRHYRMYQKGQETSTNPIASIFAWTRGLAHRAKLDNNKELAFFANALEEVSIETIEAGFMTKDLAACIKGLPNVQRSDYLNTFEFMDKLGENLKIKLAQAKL

[3] = Intrinsic clearance in mouse liver microsomes assessed per gram of protein at 0.1 uM after 60 mins in presence of NADPH by LC-MS/MS analysis; format: ADME, Microsome; conditions: 1 h
[4] = Intrinsic clearance in rat liver microsomes assessed per gram of protein at 0.1 uM after 60 mins in presence of NADPH by LC-MS/MS analysis; format: ADME, Microsome; conditions: 1 h
[5] = Intrinsic clearance in human liver microsomes assessed per gram of protein at 0.1 uM after 60 mins in presence of NADPH by LC-MS/MS analysis; format: ADME, Microsome; conditions: 1 h
[6] = Stability in human liver microsomes assessed as parent compound remaining at 0.01 uM after 60 mins by LC-MS/MS analysis; format: ADME, Microsome; conditions: read-out: Stability
[7] = Clearance in CD-1 mouse at 1 mg/kg, iv by mass spectrometric analysis; format: ADME, organism-based; conditions: in vivo
[8] = Volume of distribution at steady state in CD-1 mouse at 1 mg/kg, iv by mass spectrometric analysis; format: ADME, organism-based; conditions: in vivo
[9] = AUC in CD-1 mouse at 1 mg/kg, iv by mass spectrometric analysis; format: ADME, organism-based; conditions: in vivo
[10] = AUC in CD-1 mouse at 5 mg/kg, po administered via gavage by mass spectrometric analysis; format: ADME, organism-based; conditions: in vivo
[11] = Oral bioavailability in CD-1 mouse at 5 mg/kg administered via gavage by mass spectrometric analysis; format: ADME, organism-based; conditions: in vivo
[12] = Dose normalized AUC in CD-1 mouse at 5 mg/kg, po administered via gavage by mass spectrometric analysis; format: ADME, organism-based; conditions: in vivo
[13] = Drug level in human liver microsomes treated with (R)-3-(2-((1-(1-(3-chloro-4-fluorophenyl)-1H-imidazol-4-yl)cyclopropyl)amino)pyrimidin-4-yl)-4-((S)-1-fluoroethyl)oxazolidin-2-one at 0.01 uM after 60 mins by LC-MS/MS analysis; format: ADME, Microsome

Isocitrate dehydrogenase [NADP] cytoplasmic (Homo sapiens, UniProt O75874, R132H), sequence (O75874 2-414 R132H limits assumed): as the sequence (O75874 2-414 R132C limits assumed) above, with C131H counted along it

C[C@H](F)[C@H]1COC(=O)N1c1ccnc(NC2(c3cn(-c4ccc(F)c(Cl)c4)cn3)CC2)n1
IC50 [1]: 25 nM | IC50 [2]: 12 nM | CLint [3]: 185 mL/min/g | CLint [4]: 133 mL/min/g | CLint [5]: 125 mL/min/g | remaining at 1 h, 0.01 µM [6]: 22% | clearance [7]: 172 mL/min/kg | Vd [8]: 1.2 L/kg | AUC [9]: 40 ng·h/mL | AUC [10]: 25 ng·h/mL | bioavailability [11]: 20%

C[C@H](F)[C@H]1COC(=O)N1c1ccnc(NC2(c3cn(-c4ccccc4C(F)(F)F)cn3)CC2)n1
IC50 [1]: 112 nM

C[C@H](F)[C@H]1COC(=O)N1c1ccnc(NC2(c3cn(-c4ccc(F)c(Cl)c4)cn3)CCC2)n1
IC50 [1]: 40 nM | IC50 [2]: 21 nM | CLint [3]: 505 mL/min/g | CLint [4]: 372 mL/min/g | CLint [5]: 195 mL/min/g

C[C@H](F)[C@H]1COC(=O)N1c1ccnc(NC2(c3cn(-c4cccc(Cl)c4)cn3)CC2)n1
IC50 [1]: 42 nM | IC50 [2]: 23 nM

C[C@H](F)[C@H]1COC(=O)N1c1ccnc(NC2(c3cn(-c4cccc(C(F)(F)F)c4)cn3)CC2)n1
IC50 [1]: 32 nM | IC50 [2]: 10 nM | CLint [3]: 430 mL/min/g | CLint [4]: 312 mL/min/g | CLint [5]: 153 mL/min/g

C[C@H](F)[C@H]1COC(=O)N1c1cc(Cl)nc(NC2(c3cn(-c4ccc(F)c(Cl)c4)cn3)CC2)n1
IC50 [1]: 32 nM | IC50 [2]: 25 nM | CLint [3]: 155 mL/min/g | CLint [4]: 123 mL/min/g | CLint [5]: 110 mL/min/g

Cc1c(C2(Nc3nccc(N4C(=O)OC[C@@H]4[C@H](C)F)n3)CC2)ncn1-c1cccc(C(F)(F)F)c1
IC50 [1]: 56 nM | IC50 [2]: 38 nM

C[C@H](F)[C@H]1COC(=O)N1c1ccnc(NC2(c3cn(-c4cc(Cl)cc(Cl)c4)cn3)CC2)n1
IC50 [1]: 36 nM | IC50 [2]: 21 nM

C[C@H](F)[C@H]1COC(=O)N1c1ccnc(NC2(c3cn(-c4ccc(C(F)(F)F)cc4)cn3)CC2)n1
IC50 [1]: 65 nM | IC50 [2]: 32 nM

C[C@H](F)[C@H]1COC(=O)N1c1ccnc(NC2(c3cn(-c4ccc(Cl)cc4)cn3)CC2)n1
IC50 [1]: 54 nM | IC50 [2]: 56 nM

C[C@H](F)[C@H]1COC(=O)N1c1nc(NC2(c3cn(-c4ccc(F)c(Cl)c4)cn3)CC2)ncc1F
IC50 [1]: 35 nM | IC50 [2]: 18 nM | CLint [3]: 95 mL/min/g | CLint [4]: 89 mL/min/g | CLint [5]: 55 mL/min/g | clearance [7]: 65 mL/min/kg | Vd [8]: 0.6 L/kg | AUC [9]: 257 ng·h/mL | AUC [10]: 153 ng·h/mL | bioavailability [11]: 12% | AUC/dose [12]: 31 ng/mL.hr/(mg/kg)

C[C@H](F)[C@H]1COC(=O)N1c1ccnc(NC2(c3ncn(-c4cccc(C(F)(F)F)c4)c3C#N)CC2)n1
IC50 [1]: 85 nM | IC50 [2]: 55 nM

C[C@H](F)[C@H]1COC(=O)N1c1ccnc(NC2(c3cn(-c4cc(C(F)(F)F)ccn4)cn3)CC2)n1
IC50 [1]: 250 nM

C[C@H](F)[C@H]1COC(=O)N1c1ccnc(NC2(c3ncn(-c4cccc(C(F)(F)F)c4)n3)CC2)n1
IC50 [1]: 831 nM

O=C1OC[C@H]([C@@H](F)CO)N1c1cc(Cl)nc(NC2(c3cn(-c4ccc(F)c(Cl)c4)cn3)CC2)n1
Drug uptake [13]: Active

C[C@H](F)[C@H]1COC(=O)N1c1ccnc(NC2(c3cn(-c4cc(F)cc(Cl)c4)cn3)CC2)n1
IC50 [1]: 27 nM | IC50 [2]: 18 nM | CLint [3]: 567 mL/min/g | CLint [4]: 240 mL/min/g | CLint [5]: 350 mL/min/g

C[C@H](F)[C@H]1COC(=O)N1c1ccnc(NC2(c3ncn(-c4cccc(C(F)(F)F)c4)c3Cl)CC2)n1
IC50 [1]: 41 nM | IC50 [2]: 26 nM

C[C@H](F)[C@H]1COC(=O)N1c1ccnc(NC2(c3cn(-c4cncc(C(F)(F)F)c4)cn3)CC2)n1
IC50 [1]: 152 nM

C[C@H](F)[C@H]1COC(=O)N1c1ccnc(NC2(c3cn(-c4cccc(C(F)(F)F)n4)cn3)CC2)n1
IC50 [1]: 266 nM

CC(F)(F)[C@H]1COC(=O)N1c1ccnc(NC2(c3cn(-c4ccc(F)c(Cl)c4)cn3)CC2)n1
IC50 [1]: 721 nM

C[C@H](F)[C@H]1COC(=O)N1c1ccnc(NC2(c3cn(-c4ccnc(C(F)(F)F)c4)cn3)CC2)n1
IC50 [1]: 220 nM

Source: ChEMBL document CHEMBL4325895, “Discovery and structure-activity-relationship study of novel imidazole cyclopropyl amine analogues for mutant isocitric dehydrogenase 1 (IDH1) inhibitors” (Bioorg Med Chem Lett, 2018)
